Results published in publication PMC2346451 (PLoS ONE, 2008).

Legend:
rat TRPV1 (rTRPV1) = rat TRPV1 (rTRPV1) (Rattus norvegicus, UniProt O35433); test: Whole-cell patch clamp of rat TRPV1 expressed in HEK-293T cells; assay type: cell-based; conditions: for Decrease of pH 5-evoked TRPV1 current: 300 µM, −40 mV; for Activation of TRPV1 current: analyzed at −40 mV and +40 mV
Description: (§1) Transformed human embryonic kidney-293 (HEK-293T) cells were grown in Dulbecco's modified Eagle's medium (DMEM)+F-12 supplemented with 10% fetal calf serum, and 1% penicillin/streptomycin in 5% CO2 at 37°C. Cells grown to 90% confluence in 35 mm Petri dishes were transiently transfected with plasmid DNA encoding a TRP channel construct (1 µg). Rat TRPV1 (rTRPV1) was cloned into an enhanced green fluorescent protein-containing vector (pTracer-CMV2; Invitrogen, Carlsbad, CA). Chicken TRPV1 (cTRPV1), the chicken rat TRPV1 chimera (crcTRPV1), rat TRPV2 (rTRPV2), mouse TRPV3 (mTRPV3), mouse TRPV4 (mTRPV4), rat TRPM8 (rTRPM8), and rat TRPA1 (rTRPA1), were cloned into pcDNA3 and co-transfected with enhanced green fluorescent protein (0.1 µg) to follow expression. The cTRPV1 and crcTRPV1 clones were kindly provided by Dr. David Julius. Recordings were carried out 24–36 hours after transfection. Cells were split via trypsin EDTA, plated on glass coverslips at 5–10% confluence, and used 2–3 hours later.
(§2) Electrophysiological experiments were performed using the whole-cell patch-clamp technique at room temperature. Modified Ringer's solution with low chloride and nominal calcium contained (in mM): 130 sodium hydroxide, 5 potassium chloride, 1 magnesium chloride, 10 sodium 4-(2-hydroxyethyl)-1-piperazineethanesulfonic acid, 10 2-(N-morpholino)ethanesulfonic acid, and 20 glucose (pH 7.4; 310 milli-osmolar). […] 2 mM calcium chloride was included in the external solution where noted. To activate TRPV1, the modified Ringer's solution was made at pH 5 (low pH solution) and the chloride concentration was kept to a minimum to prevent contamination of the TRPV1 currents with acid-activated chloride currents. For recordings from heterologously expressing cells, the internal pipette solution contained (in mM): 125 cesium-Methanesulfonate, 10 cesium (1.2-bis(o-aminophenoxy)ethane-N,N,N',N'-tetraacetic acid, 8 sodium chloride, 4 magnesium adenosine triphosphate, and 10 HEPES (pH 7.2; 290 mOSM; nominal free calcium concentrations). For TRPA1 and dorsal root ganglion recordings, the internal pipette solution contained (in mM): 110 cesium-Methanesulfonate, 0.5 cesium4BAPTA, 8 sodium chloride, 0.2 calcium chloride, 4 magnesium-ATP, 4 sodium-GTP, and 10 4-(2-hydroxyethyl)-1-piperazineethanesulfonic acid (pH 7.2; 290 mOSM; 100 nM free calcium internal). MaxChelator was used to calculate the free calcium concentration (http://www.stanford.edu/cpatton/maxc.html).
(§3) Recordings were obtained using an Axopatch 200B amplifier, Digidata 1322A analog-to-digital converter, and pClamp 8.01 software (Molecular Devices, Union City, CA). Data were low-pass filtered at 2 kHz and digitized at 5 kHz. Borosilicate glass pipettes (World Precision Instruments, Sarasota, FL) were typically 3 MΩ pipette resistance after fire polishing. Cell capacitance was measured for each cell, and access resistance compensated to ∼80%. Recordings were begun ∼5 minutes after initial rupture to ensure initial steady state conditions. Current-voltage (I-V) relations were obtained using a ramp protocol. Voltage ramps (400 ms) from −100 to +40 or +100 mV were applied every 1–2 seconds and the holding potential was either −70 mV or 0 mV (see Figure Legends). A 40 ms step was added at the beginning and end of the ramp (i.e. at −100 mV, +40 mV or +100 mV). Liquid junction potentials were not corrected.
(§4) The dose response curves were fit with the Hill equation, where [drawing 8] and [A] is the concentration of agonist or blocker, N is the Hill coefficient, and KD is the [A] for Imeasured/Imax = 0.5. The term apparent dissociation constant is used in place of the half concentration of excitation and inhibition. […] Averaged data are presented as mean±standard error (S.E.) throughout. Statistical analysis included paired and unpaired Student's t-test comparisons of the data; p values are reported in the text.

mouse TRPV3 (mTRPV3) = molecular target: T1, mouse TRPV3 (mTRPV3) (Mus musculus, UniProt Q8K424); test: Whole-cell patch clamp of mouse TRPV3 expressed in HEK-293T cells; assay type: cell-based
T1 sequence (Q8K424 1-791): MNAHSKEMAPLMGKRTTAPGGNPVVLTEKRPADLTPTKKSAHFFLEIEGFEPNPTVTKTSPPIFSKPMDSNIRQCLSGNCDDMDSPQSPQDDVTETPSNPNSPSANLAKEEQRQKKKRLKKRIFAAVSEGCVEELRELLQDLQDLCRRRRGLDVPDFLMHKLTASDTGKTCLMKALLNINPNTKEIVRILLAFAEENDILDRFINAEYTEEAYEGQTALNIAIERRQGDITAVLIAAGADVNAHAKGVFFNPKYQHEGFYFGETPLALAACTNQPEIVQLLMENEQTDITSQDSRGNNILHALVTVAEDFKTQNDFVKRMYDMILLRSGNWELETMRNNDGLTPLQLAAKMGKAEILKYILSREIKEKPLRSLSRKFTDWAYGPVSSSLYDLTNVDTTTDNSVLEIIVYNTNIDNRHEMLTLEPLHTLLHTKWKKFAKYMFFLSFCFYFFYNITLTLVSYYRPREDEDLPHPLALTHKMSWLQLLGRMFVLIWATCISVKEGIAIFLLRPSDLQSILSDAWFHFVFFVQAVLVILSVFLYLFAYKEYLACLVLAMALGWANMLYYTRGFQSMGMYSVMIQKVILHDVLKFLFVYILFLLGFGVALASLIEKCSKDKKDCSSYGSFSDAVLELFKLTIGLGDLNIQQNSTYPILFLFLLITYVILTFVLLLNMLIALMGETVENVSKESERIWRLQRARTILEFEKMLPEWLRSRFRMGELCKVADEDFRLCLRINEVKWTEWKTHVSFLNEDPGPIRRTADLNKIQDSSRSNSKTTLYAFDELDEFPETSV
Description: as §1, §2, §3, §4

rat TRPM8 (rTRPM8) = rat TRPM8 (rTRPM8) (Rattus norvegicus, UniProt Q8R455); test: Whole-cell patch clamp of rat TRPM8 expressed in HEK-293T cells; assay type: cell-based
Description: as §1, §2, §3, §4

rat TRPA1 (rTRPA1) = rat TRPA1 (rTRPA1) (Rattus norvegicus, UniProt Q6RI86); test: Whole-cell patch clamp of rat TRPA1 expressed in HEK-293T cells; assay type: cell-based
Description: as §1, §2, §3, §4

[1] = test system: dorsal root ganglion neurons; test: Whole-cell patch clamp of acutely isolated dorsal root ganglion neurons; assay type: cell-based, rat
Source text: Dorsal root ganglion neurons from all spinal levels were removed from postnatal day 12 to 20 Sprague Dawley rats and the nerve roots trimmed. Calcium- and magnesium-free (CMF) Hank's solution contained (in mM): 136.9 sodium chloride, 5.4 potassium chloride, 0.34 dibasic sodium orthophosphate, 0.44 monopotassium phosphate, 5.6 glucose, 5 4-(2-hydroxyethyl)-1-piperazineethanesulfonic acid, 0.005% phenol red, pH 7.4. CMF Hank's was used throughout the isolation and enzymatic treatments. The isolated ganglia were treated for 20 minutes at 37°C with 20 U/ml of papain (Worthington Biochemical, Lakewood, NJ) and 5 mM cysteine. The ganglia were then transferred to CMF Hank's with 3 mg/ml collagenase (type I; Worthington) and 4 mg/ml dispase (neutral type II; Roche Applied Science, Indianapolis, IN) for 20 minutes at 37°C. Individual neurons were dispersed by trituration through a fire-polished glass Pasteur pipette in 3 ml of media containing DMEM, 5% horse serum, 10% fetal bovine serum, 1% penicillin/streptomycin, and 100 ng/ml Nerve Growth Factor (7S subunit; Invitrogen). The neurons were preplated in tissue culture-treated Petri dishes for 1 hour when used for electrophysiology (3 hours for calcium imaging), and then plated on poly-L-lysine (1 mg/ml)-coated glass coverslips. Dorsal root ganglion neurons were allowed to settle for 1–2 hours at 37°C before patching or imaging over the next 6 hours.
as §2, §3

[2] = after citral inhibition of TRPV1

rat TRPM8 (rTRPM8), sequence (Q8R455 whole entry): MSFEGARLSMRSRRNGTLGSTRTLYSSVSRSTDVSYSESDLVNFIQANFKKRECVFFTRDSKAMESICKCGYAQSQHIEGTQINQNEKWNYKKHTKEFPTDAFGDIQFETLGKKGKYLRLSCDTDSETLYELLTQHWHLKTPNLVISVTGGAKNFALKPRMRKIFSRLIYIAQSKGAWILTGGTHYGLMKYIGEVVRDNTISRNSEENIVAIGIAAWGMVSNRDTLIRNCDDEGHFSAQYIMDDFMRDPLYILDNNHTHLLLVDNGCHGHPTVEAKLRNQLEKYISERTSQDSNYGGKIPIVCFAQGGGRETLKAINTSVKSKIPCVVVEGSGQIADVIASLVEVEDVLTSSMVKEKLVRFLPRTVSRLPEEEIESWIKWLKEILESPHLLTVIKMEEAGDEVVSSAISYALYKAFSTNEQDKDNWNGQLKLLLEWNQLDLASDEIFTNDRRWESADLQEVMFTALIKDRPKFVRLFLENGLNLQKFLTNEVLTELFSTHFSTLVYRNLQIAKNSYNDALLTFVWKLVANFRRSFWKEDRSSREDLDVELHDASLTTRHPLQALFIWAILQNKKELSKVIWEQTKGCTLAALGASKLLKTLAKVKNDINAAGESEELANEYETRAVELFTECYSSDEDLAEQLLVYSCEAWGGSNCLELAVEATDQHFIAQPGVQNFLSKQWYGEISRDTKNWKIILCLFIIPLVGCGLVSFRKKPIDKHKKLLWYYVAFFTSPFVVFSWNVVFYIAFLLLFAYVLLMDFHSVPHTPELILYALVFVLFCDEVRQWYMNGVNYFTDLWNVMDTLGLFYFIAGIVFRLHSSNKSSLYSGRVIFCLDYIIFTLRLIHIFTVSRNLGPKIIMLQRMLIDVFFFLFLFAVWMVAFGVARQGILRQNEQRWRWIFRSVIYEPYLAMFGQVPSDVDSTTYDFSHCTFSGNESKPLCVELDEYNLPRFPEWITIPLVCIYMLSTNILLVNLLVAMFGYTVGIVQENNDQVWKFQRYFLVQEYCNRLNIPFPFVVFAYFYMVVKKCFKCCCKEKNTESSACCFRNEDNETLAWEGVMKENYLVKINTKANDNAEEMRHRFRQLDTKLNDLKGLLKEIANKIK
rat TRPA1 (rTRPA1), sequence (Q6RI86 whole entry): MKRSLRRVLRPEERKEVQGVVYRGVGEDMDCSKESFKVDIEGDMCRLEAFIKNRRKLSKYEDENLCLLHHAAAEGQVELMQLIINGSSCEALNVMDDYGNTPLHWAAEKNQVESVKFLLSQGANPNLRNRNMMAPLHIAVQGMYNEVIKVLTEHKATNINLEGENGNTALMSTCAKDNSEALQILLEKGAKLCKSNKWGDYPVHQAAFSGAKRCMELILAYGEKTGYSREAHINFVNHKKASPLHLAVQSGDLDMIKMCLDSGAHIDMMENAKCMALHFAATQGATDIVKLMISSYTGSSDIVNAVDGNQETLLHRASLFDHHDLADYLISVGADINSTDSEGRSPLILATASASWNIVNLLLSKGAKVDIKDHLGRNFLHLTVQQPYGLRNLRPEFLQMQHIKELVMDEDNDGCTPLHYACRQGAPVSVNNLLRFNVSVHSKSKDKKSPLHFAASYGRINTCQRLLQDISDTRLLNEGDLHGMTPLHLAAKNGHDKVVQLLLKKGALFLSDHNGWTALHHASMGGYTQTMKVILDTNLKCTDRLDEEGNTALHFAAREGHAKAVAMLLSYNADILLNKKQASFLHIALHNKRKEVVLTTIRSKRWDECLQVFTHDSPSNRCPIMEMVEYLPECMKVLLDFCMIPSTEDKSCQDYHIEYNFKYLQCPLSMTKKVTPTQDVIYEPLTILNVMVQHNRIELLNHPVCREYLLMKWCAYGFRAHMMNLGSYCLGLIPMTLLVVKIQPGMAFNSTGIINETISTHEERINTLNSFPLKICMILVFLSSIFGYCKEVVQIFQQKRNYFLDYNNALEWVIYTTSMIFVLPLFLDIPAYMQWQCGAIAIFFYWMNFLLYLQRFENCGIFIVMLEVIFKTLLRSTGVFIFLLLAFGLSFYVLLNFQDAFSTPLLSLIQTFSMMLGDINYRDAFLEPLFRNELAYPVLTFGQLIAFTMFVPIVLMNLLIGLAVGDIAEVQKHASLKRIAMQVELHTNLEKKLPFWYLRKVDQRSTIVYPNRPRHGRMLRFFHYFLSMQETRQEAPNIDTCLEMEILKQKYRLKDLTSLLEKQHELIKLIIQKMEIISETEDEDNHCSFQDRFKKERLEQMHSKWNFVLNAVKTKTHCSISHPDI
rat TRPV1 (rTRPV1), sequence (O35433 whole entry): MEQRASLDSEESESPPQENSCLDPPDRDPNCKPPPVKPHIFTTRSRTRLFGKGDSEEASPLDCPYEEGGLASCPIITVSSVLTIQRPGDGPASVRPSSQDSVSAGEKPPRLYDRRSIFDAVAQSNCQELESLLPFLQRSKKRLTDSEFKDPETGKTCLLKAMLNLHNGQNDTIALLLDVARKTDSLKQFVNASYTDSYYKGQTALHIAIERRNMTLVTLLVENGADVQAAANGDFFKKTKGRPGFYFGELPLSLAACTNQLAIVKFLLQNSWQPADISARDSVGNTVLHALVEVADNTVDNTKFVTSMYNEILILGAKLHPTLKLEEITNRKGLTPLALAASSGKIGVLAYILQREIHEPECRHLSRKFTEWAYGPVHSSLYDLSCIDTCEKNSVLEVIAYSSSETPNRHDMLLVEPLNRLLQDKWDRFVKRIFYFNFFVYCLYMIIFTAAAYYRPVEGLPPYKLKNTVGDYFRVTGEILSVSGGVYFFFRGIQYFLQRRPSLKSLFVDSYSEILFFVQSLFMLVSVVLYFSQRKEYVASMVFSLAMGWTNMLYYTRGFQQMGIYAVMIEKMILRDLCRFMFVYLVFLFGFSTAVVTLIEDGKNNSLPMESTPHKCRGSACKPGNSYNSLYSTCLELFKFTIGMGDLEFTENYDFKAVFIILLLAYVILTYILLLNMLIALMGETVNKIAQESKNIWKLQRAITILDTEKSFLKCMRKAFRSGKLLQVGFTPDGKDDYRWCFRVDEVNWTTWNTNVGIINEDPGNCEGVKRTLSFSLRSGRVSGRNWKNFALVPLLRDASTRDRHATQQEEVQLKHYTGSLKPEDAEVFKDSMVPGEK

Structure (SMILES) | Decrease of pH 5-evoked TRPV1 current (rat TRPV1 (rTRPV1)) [%] | Activation of TRPV1 current (rat TRPV1 (rTRPV1)) | Activation of TRPV3 current (mouse TRPV3 (mTRPV3)) | Activation of TRPM8 current (rat TRPM8 (rTRPM8)) | Activation of TRPA1 current (rat TRPA1 (rTRPA1)) | other results
CC(C)=CCC/C(C)=C\CO [nerol] | 50 | weakly activated | weakly activated | weakly activated | weakly activated | TRPV1 current recovered after washout (rat TRPV1 (rTRPV1); 1 mM, 5 minutes after washout, in 3 of 4 cells): < 1%; inhibition at 1000 µM (rat TRPV1 (rTRPV1); HEK-293T, pH 5, 1 mM, sustained after 5 minutes washout, read-out: Inhibition of pH 5-evoked TRPV1 current): 100%; Increase of TRPA1 current on second application (rat TRPA1 (rTRPA1); 1 mM, −100 mV, n = 4): 2 fold
CC12CCC(CC1=O)C2(C)C (stereo not drawn) [camphor, reference compound] | – | – | – | – | – | Increase in outward current ([1]; second 2-aminoethyldiphenyl borate responsive population): 1.3 fold
CC(C)=CCC/C(C)=C/C=O [geranial] | – | weakly activated | weakly activated | weakly activated | weakly activated | –
CC(C)=CCC/C(C)=C\C=O [neral] | – | weakly activated | weakly activated | weakly activated | weakly activated | –
CC(C)=CCC/C(C)=C/CO [geraniol] | 45 | weakly activated | weakly activated | weakly activated | weakly activated | Block of inward TRPA1 current (rat TRPA1 (rTRPA1); 1 mM, −100 mV, n = 9): 70%
NCCOB(c1ccccc1)c1ccccc1 [2-aminoethyldiphenyl borate, reference compound] | – | – | – | – | – | Potentiation of current by repeated application, representative neuron ([1]; +100 mV): 2.3 fold; Cells with evoked currents among cells in which TRPV1 was inhibited [1, 2]: 27 of 30; Increase of current in cells in which TRPV1 was inhibited [1, 2]: 3±0.4 fold; Potentiation of current by repetitive application ([1]; second responsive population (six of twelve neurons)): 1.7±0.3 fold
